According to PubChem BioAssay (NCI):
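Where inhibition never reached the appropriate level, the endpoint shown equals the highest concentration tested. Otherwise, values were interpolated linearly from a five-concentration, 48-hour dose response in 96-well plates. At the TGI there is no net growth.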

Columns and labels:
Experiment in all cases: NCI-60 cell line screen, 48 h
SF-295 CNS = tested on: SF-295 CNS
SNB-75 CNS = tested on: SNB-75 CNS
UACC-62 melanoma = tested on: UACC-62 melanoma
OVCAR-3 ovarian = tested on: OVCAR-3 ovarian
K-562 leukemia = tested on: K-562 leukemia
BT-549 breast = tested on: BT-549 breast
A549 NSCLC = tested on: A549 NSCLC
NCI/ADR-RES ovarian = tested on: NCI/ADR-RES ovarian
HCT-116 colon = tested on: HCT-116 colon
OVCAR-5 ovarian = tested on: OVCAR-5 ovarian
UACC-257 melanoma = tested on: UACC-257 melanoma
NCI-H23 lung = tested on: NCI-H23 lung
OVCAR-8 ovarian = tested on: OVCAR-8 ovarian
NCI-H522 lung = tested on: NCI-H522 lung
SW-620 colon = tested on: SW-620 colon
HCC-2998 colon = tested on: HCC-2998 colon
MOLT-4 leukemia = tested on: MOLT-4 leukemia
HT29 colon = tested on: HT29 colon
MDA-N = tested on: MDA-N
NCI-H226 lung = tested on: NCI-H226 lung
DU-145 prostate = tested on: DU-145 prostate
SF-539 CNS = tested on: SF-539 CNS
U251 CNS = tested on: U251 CNS
SF-268 CNS = tested on: SF-268 CNS
HL-60(TB) leukemia = tested on: HL-60(TB) leukemia
COLO 205 colon = tested on: COLO 205 colon
SK-MEL-28 melanoma = tested on: SK-MEL-28 melanoma
KM12 colon = tested on: KM12 colon
M14 melanoma = tested on: M14 melanoma
UO-31 renal = tested on: UO-31 renal
ACHN renal = tested on: ACHN renal
SK-OV-3 ovarian = tested on: SK-OV-3 ovarian
SK-MEL-5 melanoma = tested on: SK-MEL-5 melanoma
SNB-19 CNS = tested on: SNB-19 CNS
SN12C renal = tested on: SN12C renal
CCRF-CEM leukemia = tested on: CCRF-CEM leukemia
RXF 393 renal = tested on: RXF 393 renal
HOP-62 NSCLC = tested on: HOP-62 NSCLC
MCF7 breast = tested on: MCF7 breast
CAKI-1 renal = tested on: CAKI-1 renal
NCI-H460 lung = tested on: NCI-H460 lung
SR leukemia = tested on: SR leukemia
RPMI-8226 leukemia = tested on: RPMI-8226 leukemia
HCT-15 colon = tested on: HCT-15 colon
IGROV1 ovarian = tested on: IGROV1 ovarian
HOP-92 NSCLC = tested on: HOP-92 NSCLC
TK-10 renal = tested on: TK-10 renal
MALME-3M melanoma = tested on: MALME-3M melanoma
OVCAR-4 ovarian = tested on: OVCAR-4 ovarian
PC-3 prostate = tested on: PC-3 prostate
EKVX NSCLC = tested on: EKVX NSCLC
786-0 renal = tested on: 786-0 renal

Measured: TGI

COc1cccc(C=C(C#N)C#N)c1OC
> 100 µM: all assays above
